In PubChem BioAssay (NCI):
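How tested: cells in 96-well plates exposed to compound for 48 hours at five concentrations. The concentration for 50% growth inhibition is given as GI50. TGI marks complete inhibition of growth.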

Key:
Experiment in all cases: growth of human tumour cells (NCI), 48 h
MOLT-4 leukemia = tested on: MOLT-4 leukemia
SK-MEL-2 melanoma = tested on: SK-MEL-2 melanoma
OVCAR-5 ovarian = tested on: OVCAR-5 ovarian
SF-268 CNS = tested on: SF-268 CNS
MCF7 breast = tested on: MCF7 breast
786-0 renal = tested on: 786-0 renal
BT-549 breast = tested on: BT-549 breast
SK-OV-3 ovarian = tested on: SK-OV-3 ovarian
HS 578T breast = tested on: HS 578T breast
HCC-2998 colon = tested on: HCC-2998 colon
SF-295 CNS = tested on: SF-295 CNS
HT29 colon = tested on: HT29 colon
UACC-257 melanoma = tested on: UACC-257 melanoma
SK-MEL-5 melanoma = tested on: SK-MEL-5 melanoma
HOP-62 NSCLC = tested on: HOP-62 NSCLC
OVCAR-4 ovarian = tested on: OVCAR-4 ovarian
SNB-75 CNS = tested on: SNB-75 CNS
M14 melanoma = tested on: M14 melanoma
ACHN renal = tested on: ACHN renal
CAKI-1 renal = tested on: CAKI-1 renal
SW-620 colon = tested on: SW-620 colon
NCI-H460 lung = tested on: NCI-H460 lung
PC-3 prostate = tested on: PC-3 prostate
A549 NSCLC = tested on: A549 NSCLC
MDA-MB-435 = tested on: MDA-MB-435
SK-MEL-28 melanoma = tested on: SK-MEL-28 melanoma
HCT-15 colon = tested on: HCT-15 colon
OVCAR-3 ovarian = tested on: OVCAR-3 ovarian
MALME-3M melanoma = tested on: MALME-3M melanoma
RXF 393 renal = tested on: RXF 393 renal
COLO 205 colon = tested on: COLO 205 colon
HOP-92 NSCLC = tested on: HOP-92 NSCLC
K-562 leukemia = tested on: K-562 leukemia
SF-539 CNS = tested on: SF-539 CNS
LOX IMVI melanoma = tested on: LOX IMVI melanoma
MDA-MB-231 breast = tested on: MDA-MB-231 breast
NCI-H522 lung = tested on: NCI-H522 lung
UO-31 renal = tested on: UO-31 renal
TK-10 renal = tested on: TK-10 renal
UACC-62 melanoma = tested on: UACC-62 melanoma
U251 CNS = tested on: U251 CNS
HL-60(TB) leukemia = tested on: HL-60(TB) leukemia
CCRF-CEM leukemia = tested on: CCRF-CEM leukemia
KM12 colon = tested on: KM12 colon
NCI-H23 lung = tested on: NCI-H23 lung
OVCAR-8 ovarian = tested on: OVCAR-8 ovarian
HCT-116 colon = tested on: HCT-116 colon
DU-145 prostate = tested on: DU-145 prostate
T-47D breast = tested on: T-47D breast
NCI/ADR-RES ovarian = tested on: NCI/ADR-RES ovarian
NCI-H226 lung = tested on: NCI-H226 lung
RPMI-8226 leukemia = tested on: RPMI-8226 leukemia
SN12C renal = tested on: SN12C renal
SNB-19 CNS = tested on: SNB-19 CNS
IGROV1 ovarian = tested on: IGROV1 ovarian
A498 renal = tested on: A498 renal
EKVX NSCLC = tested on: EKVX NSCLC

## COc1cc(/C=N/NC(=O)c2ccc(C(F)(F)F)nc2Nc2ccc(Cl)cc2C)ccc1O
MOLT-4 leukemia
  GI50: 0.554 µM
  TGI: 2.75 µM
SK-MEL-2 melanoma
  GI50: 2.14 µM
  TGI: 11.9 µM
OVCAR-5 ovarian
  GI50: 2.9 µM
  TGI: 15.6 µM
SF-268 CNS
  GI50: 1.78 µM
  TGI: 13.3 µM
MCF7 breast
  GI50: 2.02 µM
  TGI: 11.6 µM
786-0 renal
  GI50: 2.64 µM
  TGI: 9.93 µM
BT-549 breast
  GI50: 1.34 µM
  TGI: 9.69 µM
SK-OV-3 ovarian
  GI50: 3.79 µM
  TGI: 15.6 µM
HS 578T breast
  GI50: 3.53 µM
  TGI: 16.5 µM
HCC-2998 colon
  GI50: 1.98 µM
  TGI: 8.45 µM
SF-295 CNS
  GI50: 1.16 µM
  TGI: 3.23 µM
HT29 colon
  GI50: 4.45 µM
  TGI: 16.2 µM
UACC-257 melanoma
  GI50: 3.97 µM
  TGI: 13.4 µM
SK-MEL-5 melanoma
  GI50: 1.41 µM
  TGI: 3.28 µM
HOP-62 NSCLC
  GI50: 3.78 µM
  TGI: 19.7 µM
OVCAR-4 ovarian
  GI50: 1.54 µM
  TGI: 17 µM
SNB-75 CNS
  GI50: 4.79 µM
  TGI: 21.3 µM
M14 melanoma
  GI50: 3.76 µM
  TGI: 14.6 µM
ACHN renal
  GI50: 3.06 µM
  TGI: 13.7 µM
CAKI-1 renal
  GI50: 2.23 µM
  TGI: 10.8 µM
SW-620 colon
  GI50: 2.77 µM
  TGI: 12.1 µM
NCI-H460 lung
  GI50: 2.65 µM
  TGI: 11.7 µM
PC-3 prostate
  GI50: 1.89 µM
  TGI: 9.87 µM
A549 NSCLC
  GI50: 3.54 µM
  TGI: 15.1 µM
MDA-MB-435
  GI50: 3.08 µM
  TGI: 11 µM
SK-MEL-28 melanoma
  GI50: 2.74 µM
  TGI: 14.3 µM
HCT-15 colon
  GI50: 0.987 µM
  TGI: 10.4 µM
OVCAR-3 ovarian
  GI50: 1.74 µM
  TGI: 13 µM
MALME-3M melanoma
  GI50: 2.19 µM
  TGI: 10.9 µM
RXF 393 renal
  GI50: 3.2 µM
  TGI: 14.3 µM
COLO 205 colon
  GI50: 3.25 µM
  TGI: 10.4 µM
HOP-92 NSCLC
  GI50: 1.59 µM
  TGI: 7.58 µM
K-562 leukemia
  GI50: 1.31 µM
  TGI: 7.17 µM
SF-539 CNS
  GI50: 2.12 µM
  TGI: 7.66 µM
LOX IMVI melanoma
  GI50: 1.36 µM
  TGI: 11.5 µM
MDA-MB-231 breast
  GI50: 0.939 µM
  TGI: 10.3 µM
NCI-H522 lung
  GI50: 3.31 µM
  TGI: 14.2 µM
UO-31 renal
  GI50: 1.39 µM
  TGI: 7.76 µM
TK-10 renal
  GI50: 5.13 µM
  TGI: 17.3 µM
UACC-62 melanoma
  GI50: 1.88 µM
  TGI: 5.01 µM
U251 CNS
  GI50: 2.09 µM
  TGI: 10.6 µM
HL-60(TB) leukemia
  GI50: 1.7 µM
  TGI: 4.41 µM
CCRF-CEM leukemia
  GI50: 0.416 µM
  TGI: 3.12 µM
KM12 colon
  GI50: 2.23 µM
  TGI: 7.16 µM
NCI-H23 lung
  GI50: 3.63 µM
  TGI: 16.7 µM
OVCAR-8 ovarian
  GI50: 1.6 µM
  TGI: 13.5 µM
HCT-116 colon
  GI50: 2.95 µM
  TGI: 12.7 µM
DU-145 prostate
  GI50: 4.27 µM
  TGI: 16.3 µM
T-47D breast
  GI50: 1.49 µM
  TGI: 18 µM
NCI/ADR-RES ovarian
  GI50: 2.66 µM
  TGI: 9.97 µM
NCI-H226 lung
  GI50: 1.28 µM
  TGI: 5.01 µM
RPMI-8226 leukemia
  GI50: 2.11 µM
  TGI: 6.1 µM
SN12C renal
  GI50: 2.97 µM
  TGI: 16.5 µM
SNB-19 CNS
  GI50: 3.73 µM
  TGI: 14.5 µM
IGROV1 ovarian
  GI50: 0.838 µM
  TGI: 7.02 µM
A498 renal
  GI50: 3.1 µM
  TGI: 14.5 µM
EKVX NSCLC
  GI50: 1.06 µM
  TGI: 12.4 µM
